Assay results published in patent US20220133846A1, “NOVEL ANTIMICROBIAL COMPOUND AND USES THEREOF” (priority 2019, published 2022).
≈ marks a conversion by molar mass, not a printed value. Where “and” joins values, the source holds several entries; their conditions need not be identical. Identical values can stand only once. Entries after “also recorded” stand apart in the source; their conditions may differ. Like-named read-outs stand apart in the source and are kept apart here.

Key:
J774A mouse BALB/c cells = experiment: Toxicity to mammalian cells (cell viability); settings: up to 1,500 μg/mL, 24 hours
[1] = IV 30 mg/kg; for AUC % Back Extrapolation to C0 / AUC % Extrapolation to infinity / tlast: blood; for Mean Concentration in blood: male CD1 mice
[2] = Stability in human serum or plasma (MIC after incubation); format: in vitro ADME
Description: Stability studies were also performed in the presence of plasma or serum, or in whole blood.

[3] = system: Staphylococcus haemolyticus strain JCM 2416
[4] = system: Enterococcus faecalis strain NBRC 100480
S. aureus (ATCC #29213) = format: cell-based
MDR S. aureus (CH-11) = experiment: Frequency of resistance (FoR) in vitro; format: cell-based
in vivo = settings: male, CD1, mouse, iv, 30 mg/kg; for clearance / MRT / Vd / half-life: blood; for clearance: CL/CL_F; for clearance / MRT / Vd: IV 30 mg/kg; for Vd: Vdss; for half-life: t1/2, IV 30 mg/kg
[5] = 1 mg/mL solution, pH 7.0, 10 minutes, centrifugation
S. aureus = experiment: Thermal and chemical (pH) short-term stability, antibacterial activity remaining; format: physicochemical; settings: 4 to 60° C. for 18 hours, and 37° C. at pH 3.0-9.0
Description: Samples were clarified by centrifugation (16,000×g for 5 min) and soluble fractions were tested for antibacterial activity (against S. aureus) and examined by analytical HPLC.

[6] = system: S. aureus NRS 384 (USA300-0114); experiment: Murine neutropenic thigh infection model; format: in vivo, mice
S. aureus or MRSA = experiment: Bacteriolytic activity (time-kill, OD600); format: cell-based; settings: twice the MIC, mid-exponential growth, over 20 hours
[7] = Stability in whole blood and plasma (zone of inhibition, diffusion method); format: in vitro ADME, mouse; settings: for Whole blood ZOI: 400 μg/mL added to mouse whole blood; for Plasma fraction ZOI: plasma from treated whole blood
Description: The antimicrobial activity remaining in blood was measured by the diffusion method and expressed as the zone of inhibition (ZOI), proportional to the amount of activity remaining in blood (Table 11). Zone of inhibition (ZOI) is a zone of bacteria free agar plate after depositing 2 μL of a tested sample. In parallel, CMB001 treated blood was centrifuged to remove blood cells and the level of CMB001 was tested in the supernatant (plasma).

A. baumannii (CH-46) = experiment: Frequency of resistance (FoR) in vitro; format: cell-based
[8] = individual animals 1-3, 30 mg/kg

C=C(NC(=O)[C@@H](NC(=O)[C@H](Cc1c[nH]cn1)NC(=O)[C@@H]1CS[C@@H](C)[C@H]2NC(=O)[C@H](C)NC(=O)[C@H](NC(=O)[C@H](CCC(N)=O)NC(=O)[C@@H](NC(=O)[C@H](Cc3ccccc3)NC(=O)[C@@H]3CS[C@@H](C)[C@@H](NC(=O)[C@@H](NC(=O)[C@@H]4CS[C@@H](C)[C@@H](NC(=O)[C@@H]5CSC[C@@H](NC(=O)[C@H](CCCCN)NC(=O)[C@@H](N)Cc6c[nH]c7ccccc67)C(=O)N[C@@H](CCC(N)=O)C(=O)NC(=C)C(=O)N[C@@H](Cc6ccccc6)C(=O)N5)C(=O)N5CCC[C@H]5C(=O)NCC(=O)N4)C(C)C)C(=O)NCC(=O)N[C@@H](C(C)C)C(=O)N[C@@H](CC(C)C)C(=O)N[C@@H](CCC(N)=O)C(=O)N/C(=C\C)C(=O)N3)[C@@H](C)CC)[C@H](C)SC[C@H](NC2=O)C(=O)N[C@@H](CC(N)=O)C(=O)N1)[C@@H](C)CC)C(=O)N[C@@H](CCCCN)C(=O)O [CMB001, WKAQX1FAX3PGAVX3GVLQX2AFIQX3AX3ANAHIX1K (SEQ ID NO: 1)]
Cell viability (J774A mouse BALB/c cells): did not reduce cell viability
Time at detectable levels in blood ([1]; LLOQ 500 ng/mL): at least 60 minutes
AUC % Back Extrapolation to C0 ([1]; Mean/Median): 16%
AUC % Extrapolation to infinity ([1]; Mean/Median): 29%
tlast ([1]; Mean/Median): 1.00 h
tlast ([1]; individual animals 1-3): 1.00 h
AUC % Back Extrapolation to C0 [1, 8]: 23% and 12% and 13%
AUC % Extrapolation to infinity [1, 8]: 26% and 22% and 41%
Mean Concentration in blood ([1]; 2.00 hours, LLOQ 500 ng/mL): BLQ*
Mean Concentration in blood ([1]; 4.00 hours, LLOQ 500 ng/mL): BLQ
Mean Concentration in blood ([1]; 8.00 hours, LLOQ 500 ng/mL): BLQ
Mean Concentration in blood ([1]; 24.00 hours, LLOQ 500 ng/mL): BLQ
Antibacterial activity after incubation in human serum or plasma ([2]; 8-hour incubation at 37° C.): retained full antibacterial activity
Antibacterial activity after incubation in human serum or plasma ([2]; 24-hour incubation): somewhat less active
MIC [3]: 6.25 µg/mL (≈ 1.87 µM)
MIC90 [4]: 12.5 µg/mL (≈ 3.73 µM)
MIC range [4]: 6.2 to 12.5 µg/mL
Frequency of resistance (FoR) (S. aureus (ATCC #29213); 2X MIC): 1.3 × 10^−8
Frequency of resistance (FoR) (S. aureus (ATCC #29213); 3X MIC): 2.2 × 10^−9
Frequency of resistance (FoR) (S. aureus (ATCC #29213); 4X MIC): 2.6 × 10^−9
Frequency of resistance (FoR) (S. aureus (ATCC #29213); 5X MIC): 3.7 × 10^−10
Frequency of resistance (FoR) (S. aureus (ATCC #29213); 10X MIC): <3.7 × 10^−10
Frequency of resistance (FoR) (MDR S. aureus (CH-11); 2X MIC): 3.5 × 10^−9
Frequency of resistance (FoR) (MDR S. aureus (CH-11); 3X MIC): 1.8 × 10^−9
Frequency of resistance (FoR) (MDR S. aureus (CH-11); 4X MIC): 2.9 × 10^−8
Frequency of resistance (FoR) (MDR S. aureus (CH-11); 5X MIC): 5.3 × 10^−10
Frequency of resistance (FoR) (MDR S. aureus (CH-11); 10X MIC): <3.2 × 10^−10
clearance (in vivo; Mean/Median): 170 mL/min/kg
clearance (in vivo; individual animals 1-2): 166 mL/min/kg
MRT (in vivo; Mean/Median): 40.2 min
MRT (in vivo; individual animals 1-2): 42.6 min
Vd (in vivo; Mean/Median): 6.8 L/kg
Vd (in vivo; individual animals 1-2): 7 L/kg
half-life (in vivo; Mean/Median): 32.4 ± 9 min
half-life (in vivo; individual animals 1-2): 38.4 min
level at 0.08 h (in vivo; whole blood): 4770 ng/mL
level at 0.25 h (in vivo; whole blood): 2450 ng/mL
level at 0.5 h (in vivo; whole blood): 1280 ng/mL
level at 1 h (in vivo; whole blood): 916 ng/mL
level at time molar at 0.08 h (in vivo; whole blood): 1420 nM
level at time molar at 0.25 h (in vivo; whole blood): 733 nM
level at time molar at 0.5 h (in vivo; whole blood): 383 nM
level at time molar at 1 h (in vivo; whole blood): 274 nM
Solubility relative to initial concentration [5]: > 96%
Antibacterial activity (MIC) and chemical integrity after incubation (S. aureus): retained its full antibacterial activity (MIC) and chemical integrity
Bacterial burden compared to vehicle control ([6]; 0.5 to 10 mg/kg IV): dose dependent reduction of bacterial burden; also recorded: dose-dependent reduction of S. aureus in the thigh
Thigh burden compared to vehicle-treated group ([6]; 5 to 30 mg/kg IV at 1, 8 and 15 hours post-infection): Significant reduction of thigh burden
Survival to end of study ([6]; 5 to 30 mg/kg IV, 25 h post-infection): Most CMB001-treated animals survived until the end of the study
Thigh burden relative to pre-treatment levels ([6]; all doses, 5 to 30 mg/kg IV): reduced below pre-treatment levels
MIC range (Acinetobacter baumannii): 3.4 to 27.7 µg/mL
Bacteriolytic activity, change of OD600 (S. aureus or MRSA): marked decrease of OD600
Whole blood ZOI ([7]; 10 minutes): 10 mm
Whole blood ZOI ([7]; 60 minutes): 9 mm
Whole blood ZOI ([7]; 120 minutes): 8 mm
Whole blood ZOI ([7]; 180 minutes): 8 mm
Whole blood ZOI ([7]; 240 minutes): 8 mm
Adsorption onto blood cells ([7]; mouse blood, 400 μg/mL): not adsorbed onto blood cells
Activity in whole blood ([7]; mouse blood, 400 μg/mL, 0-4 hours): retains full activity in whole blood
Plasma fraction ZOI ([7]; 10 minutes): 11 mm
Plasma fraction ZOI ([7]; 60 minutes): 9 mm
Plasma fraction ZOI ([7]; 120 minutes): 8 mm
Plasma fraction ZOI ([7]; 180 minutes): 8 mm
Plasma fraction ZOI ([7]; 240 minutes): 7 mm
Spiked plasma control ZOI ([7]; plasma spiked with CMB001, 10 minutes): 9 mm
Spiked plasma control ZOI ([7]; plasma spiked with CMB001, 60 minutes): 11 mm
Spiked plasma control ZOI ([7]; plasma spiked with CMB001, 120 minutes): 11 mm
Spiked plasma control ZOI ([7]; plasma spiked with CMB001, 180 minutes): 11 mm
Spiked plasma control ZOI ([7]; plasma spiked with CMB001, 240 minutes): 10 mm
Frequency of resistance (FoR) (A. baumannii (CH-46); 2X MIC): 1.1 × 10^−7
Frequency of resistance (FoR) (A. baumannii (CH-46); 3X MIC): 2.9 × 10^−9
Frequency of resistance (FoR) (A. baumannii (CH-46); 5X MIC): <1 × 10^−11
Frequency of resistance (FoR) (A. baumannii (CH-46); 10X MIC): <1 × 10^−11
